Experimental findings from PubChem BioAssay AID1194 (EPA DSSTox, 2008) are described below.

In the series the test system is Salmonella typhimurium Ames mutagenicity, literature compiled. In words: DSSTox (CPDBAS) Carcinogenic Potency Database Salmonella Mutagenicity. The source says:
The Carcinogenic Potency Database (CPDB) is a unique and widely used international resource of the results of over 6500 chronic, long-term animal cancer tests on over 1500 chemical substances. The CPDB provides easy access to the bioassay literature, with qualitative and quantitative analyses of both positive and negative experiments that have been published over the past 50 years in the general literature and by the National Cancer Institute/National Toxicology Program. The CPDB standardizes the diverse literature of cancer bioassays that vary widely in protocol, histopathological examination and nomenclature, and in the published author's choices of what information to provide in their papers. Results are reported in the CPDB for tests in rats, mice, hamsters, dogs, and nonhuman primates, and are based on the most positive result among all experiments for each sex-species. The DSSTox CPDBAS (all species) file incorporates data from the CPDB Summary Tables for the full list of over 1500 chemical substances tested in at least one species.
A chemical is classified within the CPDB as mutagenic, i.e. "active", in the Salmonella assay if it was evaluated overall as either "mutagenic" or "weakly mutagenic" by Zeiger [Zeiger, E. (1997) Genotoxicity Database. In: Gold and Zeiger, Eds. Handbook of Carcinogenic Potency and Genotoxicity Databases. Boca Raton, FL: CRC Press, pp. 687-729. http://potency.berkeley.edu/CRCbook.html] or as overall "positive" by the EPA Gene-Tox Program [Kier et al. (1986) Mutat. Res. 168: 69-240].

The structures appear in SMILES notation. Calls of active or inactive are those of the source.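 The calls were made as follows: active = chemicals rated mutagenic or weakly mutagenic in the Salmonella bacterial test by one literature review, or positive overall by another; inconclusive = no clear call, values can overlap the other calls; inactive = the rest.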

As to `Cc1ccccc1S(N)(=O)=O`, the outcome was inactive.

In the case of `N[C@@H](CCC(=O)O)C(=O)O`, the outcome is “inactive; active”. `NNCCO`: the outcome is “active; inactive”. With `CC(=O)OC(OC(C)=O)c1ccc([N+](=O)[O-])o1` the entry was “active”; with `O=C(CCl)c1ccccc1`, “inactive”. With `CCOP(=S)(OCC)Oc1nc(Cl)c(Cl)cc1Cl` the entry was “inactive”; with `O=[N+]([O-])c1ccc(NCCO)c(OCCO)c1`, “active”. With `CCOc1ccccc1C(N)=O` the entry was “inactive; active”; with `O=S(=O)(O)c1ccc2c(N=Nc3ccc(S(=O)(=O)O)c4ccccc34)c(O)c(S(=O)(=O)O)cc2c1`, “inactive”. With `CC(O)CN(CC(C)O)CC(C)O` (centres undefined), the outcome is “inactive; active”. Take `O=C(N[C@H](CO)[C@H](O)c1ccc([N+](=O)[O-])cc1)C(Cl)Cl`: the result was inactive. With `F` the entry was “inactive; active”; with `OC[C@@H](O)[C@@H](O)[C@H](O)[C@H](O)CO`, “inactive; active”. With `CCCCC(CC)COC(=O)c1ccccc1C(=O)OCC(CC)CCCC` (centres undefined) the entry was “inactive; active”; with `CC1CN(/N=C/c2ccc([N+](=O)[O-])o2)C(=O)N1` (centres undefined), “active; inactive”; with `Nc1ccc2c(n1)[nH]c1ccccc12`, “active”. The value for `[Cl-].[Cl-].[Hg+2]` was “inactive; active”; that for `c1ccc2sc(SSc3nc4ccccc4s3)nc2c1` was “active; inactive”. With `CN(C)C=O`, the result was inactive.

For the compound `S=P(N1CC1)(N1CC1)N1CC1`, the outcome was “active; inactive”.

As for `CC(=O)[O][Hg][c]1ccccc1`, the outcome is “inactive; active”. With `CC(=O)Nc1nc(-c2ccc([N+](=O)[O-])o2)cs1` the entry was “active; inactive”; with `O=C1O[C@H]([C@H](O)CO)C(O)=C1O`, “inactive”; with `CCSCC[C@H](N)C(=O)O`, “inactive”. The value for `CC[C@H]1OC(=O)[C@H](C)[C@@H](O[C@H]2C[C@@](C)(OC)[C@@H](O)[C@H](C)O2)[C@H](C)[C@@H](O[C@@H]2O[C@H](C)C[C@H](N(C)C)[C@H]2O)[C@](C)(O)C[C@@H](C)C(=O)[C@H](C)[C@@H](O)[C@]1(C)O` was “inactive”. For `CCc1ccccc1`, the result was inactive. The value for `Nc1nc(N)nc(N)n1` was “inactive; active”; that for `CCOP(=S)(OCC)Oc1cc(C)nc(C(C)C)n1` was “inactive; active”; that for `COc1ccc(N)cc1` was “active; inactive”. `Brc1c(Br)c(Br)c(Oc2c(Br)c(Br)c(Br)c(Br)c2Br)c(Br)c1Br`: the outcome is “inactive; active”.

As for `NC(N)=O`, the outcome is “inactive; active”. The value for `C=CC#N` was “active”; that for `ClCCl` was “active; inactive”; that for `C=CC(OC(C)=O)c1ccc2c(c1)OCO2` (centres undefined) was “active”.

Consider `Clc1cc2c(cc1Cl)Oc1cc(Cl)c(Cl)cc1O2`, for which the outcome is “inactive; active”. With `O=c1ccc2ccccc2o1` the entry was “active; inactive”; with `O=[N+]([O-])c1ccc2c(c1)Cc1ccccc1-2`, “active”; with `CN(C)CCOC(C)(c1ccccc1)c1ccccn1` (centres undefined), “inactive”. The value for `CC(=O)NNc1ccccc1` was “active”. For `Nc1ccc(Oc2ccc(N)cc2)cc1`, the result was active. With `CC(C)=CCC/C(C)=C/C=O` the entry was “inactive; active”. With `Cc1c2ccccc2c(C)c2c1ccc1ccccc12` the entry was “active”; with `CCN(C)N=O`, “active”; with `O=C1c2ccccc2C(=O)N1SC(Cl)(Cl)Cl`, “active”. With `OCl` the entry was “inactive; active”.

As for `Cc1ccc(N)cc1`, the result was active. With `O=C1OC(=O)c2ccccc21` the entry was “inactive; active”; with `CCCCCCc1ccc(O)cc1O`, “inactive; active”; with `Cc1ccc2cc3c(ccc4ccccc43)c3c2c1CC3`, “active”. With `CN(C)N=Nc1ccccc1` the entry was “active”; with `Cc1nc(N)cc2[nH]c3ccccc3c12`, “active”. With `CCOc1ccc(NC(C)=O)cc1`, the outcome is “active; inactive”.

Regarding `O=[N+]([O-])c1ccc(Nc2ccc(Nc3ccccc3)c(S(=O)(=O)O)c2)c([N+](=O)[O-])c1`, the outcome is “active; inactive”.

Consider `Cc1cc(O)c2c(c1O)C(=O)C13C(=C2O)C(=O)C2C(O)C1C1C(O)C3C(=O)C3=C(O)c4c(O)cc(C)c(O)c4C(=O)C321` (centres undefined), for which the outcome was “inactive; active”. `NNC(N)=O`: the outcome was inactive. The value for `COS(C)(=O)=O` was “active”. The value for `C[N+](C)(C)CCO` was “inactive; active”; that for `CCCCCCCCS(=O)C(C)Cc1ccc2c(c1)OCO2` (centres undefined) was “inactive; active”; that for `Nc1ccc(O)c([N+](=O)[O-])c1` was “active”. As for `O=C/C=C/c1ccccc1`, the outcome was inactive. With `CCC[N+](=O)[O-]` the entry was “inactive; active”. The value for `CN(C)c1ccc(C(=C2C=CC(=[N+](C)C)C=C2)c2ccc(N(C)C)cc2)cc1` was “inactive; active”; that for `CCCCCCCC(=O)OCC(COC(=O)CCCCCCC)OC(=O)CCCCCCC` was “active; inactive”; that for `O=C1C(Cl)=C(Cl)C(=O)C(Cl)=C1Cl` was “active”. For the compound `S=C1NCCN1`, the outcome was active. In the case of `CC(C)Oc1ccc(Nc2ccccc2)cc1`, the outcome was “inactive; active”.

For the compound `CC(CCl)OC(C)CCl` (centres undefined), the outcome was active. The value for `C/C=C/c1ccc2c(c1)OCO2` was “inactive; active”; that for `O=NN1CCCCCC1` was “active”. With `CN(C#N)N=O` the entry was “active; inactive”. Regarding `CN(C)/N=N/c1nc[nH]c1C(N)=O`, the outcome was active. In the case of `CN(N=O)C(N)=O`, the result was active.

With `CC(O)CNCC(C)O` (centres undefined), the result was inactive. For `CN(N=O)c1ccccn1`, the outcome is “active; inactive”. With `CNNC` the entry was “active”; with `O=C1c2cccc(O)c2C(=O)c2c(O)cccc21`, “active”; with `Cc1ccc(N=C=O)cc1N=C=O`, “active”.

As for `FC(F)OC(F)(F)C(F)Cl` (centres undefined), the outcome was “inactive; active”. With `COc1c(Cl)c(Cl)c(Cl)c(Cl)c1Cl` the entry was “active; inactive”; with `O=S(=O)(c1ccc(Cl)cc1)c1ccc(Cl)cc1`, “inactive”. With `C=CCCl` the entry was “active; inactive”. The value for `OCC(O)CCl` (centres undefined) was “active; inactive”; that for `O=C(O)COc1cc(Cl)c(Cl)cc1Cl` was “inactive; active”; that for `CN=[N+](C)[O-]` was “active”. In the case of `CC(C)O`, the outcome was “inactive; active”. Turning to `Clc1ccc(Cl)cc1`, the result was inactive. With `O=NN1CCCCCCC1` the entry was “active; inactive”. The value for `CC(=O)N(O)c1ccc2c(c1)Cc1ccccc1-2` was “active; inactive”. On to `NC(=S)NNC(N)=S`, for which the outcome is “inactive; inconclusive”. With `COc1ccc(N)c(C)c1` the entry was “active; inactive”; with `C=C(F)F`, “active”. The value for `O=NN1CCC(=O)NC1=O` was “active; inactive”; that for `C[C@H](CCC(=O)O)[C@H]1CC[C@H]2[C@@H]3CC[C@@H]4C[C@H](O)CC[C@]4(C)[C@H]3CC[C@]12C` was “inactive”; that for `CCCCNC(=O)NS(=O)(=O)c1ccc(C)cc1` was “inactive; active”.

For `O=C(O)C(Cl)Cl`, the result was active. With `O=NN1CCCN(N=O)CC1` the entry was “active”; with `N#Cc1c(Cl)c(Cl)c(Cl)c(C#N)c1Cl`, “inactive”.

Take `CSCCC(N)C(=O)O` (centres undefined): the outcome was “inactive; active”. With `S=C(NC1CCCCC1)NC1CCCCC1` the entry was “inactive; active”; with `O=CC1CO1` (centres undefined), “active”; with `O=C1C=C2C(=CCOC2O)O1` (centres undefined), “inactive; active”. With `C/C=C1/C[C@@H](C)[C@](O)(CO)C(=O)OCC2=CCN3CC[C@@H](OC1=O)[C@@H]23` the entry was “active; inactive”.

In the case of `Cc1cc(=O)[nH]c(=S)[nH]1`, the result was inactive. With `C=CC1CC=CCC1` (centres undefined) the entry was “inactive”; with `O=[N+]([O-])c1ccc2c3c(cccc13)CC2`, “active”. Take `S=c1nc[nH]c2nc[nH]c12`: the outcome was active.

Turning to `O=[N+]([O-])c1ccc(O)c([N+](=O)[O-])c1`, the outcome was inactive.

For the compound `Cc1cccc(N)c1`, the result was inactive. With `CBr` the entry was “active”.
